From patent US6642217B2, “Triterpenes having human antifungal and antiyeast activity” (Naturtek, LLC, priority 2000, dated 2003)

Experiments:
Trichophyton tonsuran [1] = test: Agar dilution method, growth on Sabouraud dextrose agar slants; format: cell-based, Trichophyton tonsurans; design: key: +++: Maximum Fungal Growth; ++: Moderate Fungal Growth; +: Minimum Fungal Growth; +/−: Very little Fungal Growth; −: No Fungal Growth; settings: 12th day after inoculation
Outline: (§1)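 Compound in DMSO was mixed into molten Sabouraud dextrose agar at 45 °C to the final test concentrations, then set as slants and inoculated with the fungal culture. Slants were incubated 10–12 days at 25–28 °C, with growth scored every second day.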

Microsporum audouinni [2] = test: as above; format: cell-based, Microsporum audouinii; design: key: +++: Maximum Fungal Growth; ++: Moderate Fungal Growth; +: Minimum Fungal Growth; +/−: Very little Fungal Growth; −: No Fungal Growth; settings: 12th day after inoculation
Outline: as §1

Epidermophyton floccosum [3] = test: Direct addition method, solid compound in Sabouraud dextrose agar; format: cell-based; design: key: +++: Maximum Fungal Growth; ++: Moderate Fungal Growth; +: Minimum Fungal Growth; +/−: Very little Fungal Growth; −: No Fungal Growth; settings: 4 mg/mL of agar; 12th day after inoculation
Outline: (§2)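 Presence or absence of fungal growth was noted on alternate days, with the day-12 observation used. Test material, added undissolved to 45° C. Sabouraud dextrose medium to reach 4 mg/ml final, was solidified as slants before inoculation and incubation at 25-28° C.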

Microsporum canis [4] = test: as above; format: cell-based; design: key: +++: Maximum Fungal Growth; ++: Moderate Fungal Growth; +: Minimum Fungal Growth; +/−: Very little Fungal Growth; −: No Fungal Growth; settings: 4 mg/mL of agar; 12th day after inoculation
Outline: as §2

Trichophyton rubrum [5] = test: as above; format: cell-based; design: key: +++: Maximum Fungal Growth; ++: Moderate Fungal Growth; +: Minimum Fungal Growth; +/−: Very little Fungal Growth; −: No Fungal Growth; settings: 4 mg/mL of agar; 12th day after inoculation
Outline: as §2

Microsporum gypseum [6] = test: as above; format: cell-based; design: key: +++: Maximum Fungal Growth; ++: Moderate Fungal Growth; +: Minimum Fungal Growth; +/−: Very little Fungal Growth; −: No Fungal Growth; settings: 4 mg/mL of agar; 12th day after inoculation
Outline: as §2

Pityrosporum ovale [7] = test: as above; format: cell-based; design: key: +++: Maximum Fungal Growth; ++: Moderate Fungal Growth; +: Minimum Fungal Growth; +/−: Very little Fungal Growth; −: No Fungal Growth; settings: 4 mg/mL of agar; 12th day after inoculation
Outline: as §2

[8] = system: Trichophyton mentagrophytes; test: as above; format: cell-based; design: key: +++: Maximum Fungal Growth; ++: Moderate Fungal Growth; +: Minimum Fungal Growth; +/−: Very little Fungal Growth; −: No Fungal Growth; settings: 4 mg/mL of agar; 12th day after inoculation
Outline: as §2

Microsporum audouinii = test: Summary of anti-fungal assays (direct addition, agar dilution, liquid culture); format: cell-based; settings: stated in words (Tables 1a/1b, text to Table 5)
Experimental: (§3) This example summarizes the results of various other assays of the anti-fungal activity of betulin derivatives. Table 5 summarizes results using different assay methods—direct addition, agar dilution, and direct addition to liquid culture, as disclosed in the previous three Examples. In some cases, only one type of assay was done with a compound. In other cases, the compound was tested by multiple assays.

Microsporum audouinni [9] = test: Direct addition method, solid compound in Sabouraud dextrose agar; format: cell-based, Microsporum audouinii; design: key to Fungal growth: +++: Maximum Fungal Growth; ++: Moderate Fungal Growth; +: Minimum Fungal Growth; +/−: Very little Fungal Growth; −: No Fungal Growth; settings: for Fungal growth: 4 mg/mL of agar, 12th day after inoculation
Outline: as §2

[10] = system: Trichophyton mentagrophyte; test: Agar dilution method, growth on Sabouraud dextrose agar slants; format: cell-based, Trichophyton mentagrophytes; design: key to Fungal growth: +++: Maximum Fungal Growth; ++: Moderate Fungal Growth; +: Minimum Fungal Growth; +/−: Very little Fungal Growth; −: No Fungal Growth; settings: 12th day after inoculation
Outline: as §1

Microsporum canis [11] = test: as above; format: cell-based; design: key: +++: Maximum Fungal Growth; ++: Moderate Fungal Growth; +: Minimum Fungal Growth; +/−: Very little Fungal Growth; −: No Fungal Growth; settings: 12th day after inoculation
Outline: as §1

Trichophyton rubrum [12] = test: as above; format: cell-based; design: key: +++: Maximum Fungal Growth; ++: Moderate Fungal Growth; +: Minimum Fungal Growth; +/−: Very little Fungal Growth; −: No Fungal Growth; settings: 12th day after inoculation
Outline: as §1

Microsporum gypseum [13] = test: as above; format: cell-based; design: key: +++: Maximum Fungal Growth; ++: Moderate Fungal Growth; +: Minimum Fungal Growth; +/−: Very little Fungal Growth; −: No Fungal Growth; settings: 12th day after inoculation
Outline: as §1

Pityrosporum ovale [14] = test: as above; format: cell-based; design: key: +++: Maximum Fungal Growth; ++: Moderate Fungal Growth; +: Minimum Fungal Growth; +/−: Very little Fungal Growth; −: No Fungal Growth; settings: 12th day after inoculation
Outline: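 In this agar dilution format, DMSO solutions of compound went into liquid Sabouraud dextrose agar (45 °C), which was slanted and inoculated. Incubation ran 10-12 days at 25-28 °C.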

Epidermophyton floccosum [15] = test: as above; format: cell-based; design: key to Fungal growth: +++: Maximum Fungal Growth; ++: Moderate Fungal Growth; +: Minimum Fungal Growth; +/−: Very little Fungal Growth; −: No Fungal Growth; settings: 12th day after inoculation
Outline: as §1

Trichophyton rubrum [16] = test: Direct addition method, solid compound in Sabouraud dextrose agar; format: cell-based; settings: against Trichophyton rubrum
Experimental: (§4) Direct addition method. Sabouraud dextrose agar was prepared according to the manufacturer's instructions and 5.0 ml was dispensed in each 100×25 mm tube. The tubes were autoclaved. To each tube containing 5.0 ml of liquid agar at 45° C., 20 mg of solid test compound was added, to give a final concentration of 4 mg/ml. The agar was solidified in slants. The fungal cultures were then innoculated. The slants were incubated at 25-28 ° C. for 10-12 days, and the growth of the fungus was recorded every second day. The results in Table 2 indicate growth at the 12th day of inoculation.

Trichophyton tonsuran [17] = test: as above; format: cell-based, Trichophyton tonsurans; design: key: +++: Maximum Fungal Growth; ++: Moderate Fungal Growth; +: Minimum Fungal Growth; +/−: Very little Fungal Growth; −: No Fungal Growth; settings: 4 mg/mL of agar; 12th day after inoculation
Experimental: as §4

herpes simplex virus = settings: cited from earlier work
Pityrosporum ovale [18] = test: Direct addition into the Pityrosporum agar; format: cell-based; design: key to Pityrosporum ovale growth: +++: Maximum Growth; ++: Moderate Growth; +: Minimum Growth; +/−: Very Little Growth; −: No Growth; settings: 4 mg/ml in the agar; 18 hours after inoculation
Experimental: as §4, with “The slants were incubated at 25-28 ° C. for 10-12 days, and the growth of the fungus was recorded every second day. The results in Table 2 indicate growth at the 12th day of inoculation.” left out

Microsporum canis [19] = test: Direct addition method, solid compound in Sabouraud dextrose agar; format: cell-based; settings: against Microsporum canis
Experimental: as §4

Microsporum canis [20] = test: as above; format: cell-based; design: key: +++: Maximum Fungal Growth; ++: Moderate Fungal Growth; +: Minimum Fungal Growth; +/−: Very Little Fungal Growth; −: No Fungal Growth; settings: 4 mg/mL of agar; 12th day after inoculation
Experimental: as §4

Blastomyces dermatidis = test: Summary of anti-fungal assays (direct addition, agar dilution, liquid culture); format: cell-based; settings: stated in words (Tables 1a/1b, text to Table 5)
Experimental: as §3

Epidermophyton floccosum [21] = test: as above; format: cell-based; settings: stated in words (Tables 1a/1b, text to Table 5); listed as betulin-3,28-dioxalate-3,28-polyethyleneimine
Experimental: as §3

Candida albicans = test: as above; format: cell-based; settings: stated in words (Tables 1a/1b, text to Table 5)
Experimental: as §3

Trichophyton tonsurans = test: as above; format: cell-based; settings: stated in words (Tables 1a/1b, text to Table 5)
Experimental: as §3

Microsporum gypseum [22] = test: as above; format: cell-based; settings: stated in words (Tables 1a/1b, text to Table 5)
Experimental: as §3

[23] = system: Trichophyton mentagrophytes; test: as above; format: cell-based; settings: stated in words (Tables 1a/1b, text to Table 5)
Experimental: as §3

Crytococcus neoformans = test: as above; format: cell-based, Cryptococcus neoformans; settings: stated in words (Tables 1a/1b, text to Table 5)
Experimental: as §3

For `C=C(C)[C@@H]1CC[C@]2(CO)CC[C@]3(C)[C@H](CC[C@@H]4[C@@]5(C)CC[C@H](O)C(C)(C)[C@@H]5CC[C@]43C)[C@@H]12` [Betulin, lup-20(29)-ene-3,28-diol], the Fungal growth (Trichophyton tonsuran [1]; 12.5 μg/ml) was “+++”, the Fungal growth (Trichophyton tonsuran [1]; 25 μg/ml) was “++” and the Fungal growth (Trichophyton tonsuran [1]; 50 μg/ml) was “++”. The Fungal growth (Trichophyton tonsuran [1]; 100 μg/ml) was “−”, the Fungal growth (Microsporum audouinni [2]; 12.5 μg/ml) was “+/−” and the Fungal growth (Microsporum audouinni [2]; 25 μg/ml) was “+/−”. For the same compound, the Fungal growth (Microsporum audouinni [2]; 50 μg/ml) was “−”, the Fungal growth (Microsporum audouinni [2]; 100 μg/ml) was “−” and the Fungal growth (Epidermophyton floccosum [3]) was “−”. For the same compound, the Fungal growth (Microsporum canis [4]) was “+”, the Fungal growth (Trichophyton rubrum [5]) was “−” and the Fungal growth (Microsporum gypseum [6]) was “++”. For the same compound, the Fungal growth (Pityrosporum ovale [7]) was “−”, the Fungal growth [8] was “++” and the “Active against Microsporum audouinii” value (Microsporum audouinii) was “Microsporum audouinii,”. The Fungal growth (Microsporum audouinni [9]) was “−”, the “best anti-fungal or anti-yeast activity by the direct addition method” value (“best anti-fungal or anti-yeast activity” for short) (Microsporum audouinni [9]; against Microsporum audouinii) was “against Microsporum audouinii” and the Fungal growth ([10]; 12.5 μg/ml) was “++”. The Fungal growth ([10]; 25 μg/ml) was “+”, the Fungal growth ([10]; 50 μg/ml) was “+/−” and the Fungal growth ([10]; 100 μg/ml) was “−”. For the same compound, the Fungal growth (Microsporum canis [11]; 12.5 μg/ml) was “++”, the Fungal growth (Microsporum canis [11]; 25 μg/ml) was “+” and the Fungal growth (Microsporum canis [11]; 50 μg/ml) was “+/−”. For the same compound, the Fungal growth (Microsporum canis [11]; 100 μg/ml) was “−”, the Fungal growth (Trichophyton rubrum [12]; 12.5 μg/ml) was “++” and the Fungal growth (Trichophyton rubrum [12]; 25 μg/ml) was “++”. The Fungal growth (Trichophyton rubrum [12]; 50 μg/ml) was “+”, the Fungal growth (Trichophyton rubrum [12]; 100 μg/ml) was “−” and the Fungal growth (Microsporum gypseum [13]; 12.5 μg/ml) was “+++”. For the same compound, the Fungal growth (Microsporum gypseum [13]; 25 μg/ml) was “++”, the Fungal growth (Microsporum gypseum [13]; 50 μg/ml) was “++” and the Fungal growth (Microsporum gypseum [13]; 100 μg/ml) was “−”. For the same compound, the Fungal growth (Pityrosporum ovale [14]; 12.5 μg/ml) was “+++”, the Fungal growth (Pityrosporum ovale [14]; 25 μg/ml) was “+++” and the Fungal growth (Pityrosporum ovale [14]; 50 μg/ml) was “++”. The Fungal growth (Pityrosporum ovale [14]; 100 μg/ml) was “+/−”, the Fungal growth (Epidermophyton floccosum [15]; 12.5 μg/ml) was “+” and the Fungal growth (Epidermophyton floccosum [15]; 25 μg/ml) was “+”. The Fungal growth (Epidermophyton floccosum [15]; 50 μg/ml) was “−”, the Fungal growth (Epidermophyton floccosum [15]; 100 μg/ml) was “−” and the “best anti-fungal or anti-yeast activity” value (Trichophyton rubrum [16]) was “against Trichophyton rubrum”. The Fungal growth (Trichophyton tonsuran [17]) was “++” and the “Anti-viral activity against herpes simplex virus” value (herpes simplex virus) was “anti-viral activity”.
With `C=C(C)[C@@H]1CC[C@]2(COC(=O)CN)CC[C@]3(C)[C@H](CC[C@@H]4[C@@]5(C)CC[C@H](OC(=O)CN)C(C)(C)[C@@H]5CC[C@]43C)[C@@H]12` [Betulin-3,28-diglycine] the Fungal growth (Epidermophyton floccosum [3]) was “−”, the Fungal growth (Trichophyton rubrum [5]) was “+” and the Fungal growth (Pityrosporum ovale [7]) was “−”. The Pityrosporum ovale growth (Pityrosporum ovale [18]) was “+”, the Fungal growth (Microsporum audouinni [9]) was “+” and the “best anti-fungal or anti-yeast activity” value (Microsporum canis [19]) was “against Microsporum canis”. For the same compound, the Fungal growth (Microsporum canis [20]) was “+/−”.
In the case of “Betulin-3,28-dioxalate-3,28-polyethyleneimine”, the “Active against Blastomyces dermatidis” value (Blastomyces dermatidis) is reported as “against Blastomyces dermaidis”, the “Active against Epidermophyton floccosum” value (Epidermophyton floccosum [21]) is reported as “against Epidermophyton floccosum” and the “Active against Candida albicans” value (Candida albicans) is reported as “Candida albicans,”. For the same compound, the “Active against Microsporum audouinii” value (Microsporum audouinii) was “Microsporum audouinii,”, the “Active against Trichophyton tonsurans” value (Trichophyton tonsurans) was “Trichophyton tonsurans,” and the “Active against Microsporum gypseum” value (Microsporum gypseum [22]) was “Microsporum gypseum,”. The “Active against Trichophyton mentagrophytes” value [23] was “Trichophyton mentagrophytes,” and the “Active against Cryptococcus neoformans” value (Crytococcus neoformans) was “against Crytococcus neoformans”.
